Patent publication US12016899B2, “Compositions comprising Sel1-derived peptides and methods of treatment/prevention of excess oxalate levels and associated conditions/diseases therewith” (The University of Chicago, priority 2018, dated 2024)
Entries after “also recorded” stand apart in the source; their conditions may differ. Primed or numbered codes have the meaning given here. Where no end group is shown, it is not given here. [ ]: non-standard residue; d: D form. PEG6′ = Peg: PEG6 in place of glycine

How the values were obtained:
human ileum organoid = assay: oxalate transport by human ileum organoid; format: cell-based; settings: 500 μM DIDS; ileum Org
[1] = test system: human sigmoid colon organoid; assay: oxalate transport by human sigmoid colon organoid; format: cell-based
Procedure: (§1) Although the transformed C2 cells resemble the native epithelium, they don't fully recapitulate the in vivo physiological responses. Primary stem-cell derived intestinal organoids (Orgs) were recently established as an ex vivo model of the intestinal epithelium, and they mimic the full spectrum of physiological responses in vivo. Therefore, experiments were conducted during development of embodiments herein to confirm the C2 findings in colonic organoids.
(§2) To recapitulate the findings in vivo, primary stem-cell derived intestinal organoids (Org) were used which have been established as an ex vivo model of the intestinal epithelium with a full spectrum of physiological responses found in vivo (Ref. 35; incorporated by reference in its entirety). A human sigmoid colonic Org (from a healthy individual) was grown and maintained as previously reported (Ref. 34; incorporated by reference in its entirety). Org cells were plated onto collagen-coated transwell filters and formed monolayers. Monolayer confluency and differentiation was confirmed by transepithelial electrical resistance measurements (Ref. 34; incorporated by reference in its entirety).

[2] = test system: human intestinal Caco2-BBE (C2) cells; settings: cited from earlier work; for stimulation of oxalate transport by cells (Sel1 proteins), in words: PCT/US18/14494
[3] = test system: human intestinal Caco2-BBE (C2) cells; assay: 14C-oxalate influx (oxalate transport) by Caco2-BBE (C2) cells; format: cell-based; settings: for effect of trace element added to P8 or P9 on oxalate transport, in words: C2 cells, versus peptide alone
Procedure: Toward this end, Of culture conditioned medium (CM) was prepared as recently reported (Ref. 4; herein incorporated by reference in its entirety) and human intestinal Caco2-BBE (C2) cells were used to evaluate the effects of Of CM on intestinal oxalate transport. Apical oxalate uptake by C2 cells was measured by imposing an outward Cl gradient by removing extracellular Cl [Cli>Clo] (Refs. 3, 4, 14; incorporated by reference in their entireties) and measuring DIDS (anion exchange inhibitor)-sensitive influx of 14C-oxalate in exchange for intracellular Cl [i.e. apical Cl-oxalate exchange activity, ≥49% of which is mediated by the oxalate transporter SLC26A6 (A6) in C2 cells (4, 12))].
The inventors sought to identify trace elements to better stimulate oxalate transport by facilitating the binding of P8 and/or P9 to a cell surface receptor. The inventors analyzed combinations of P8 and P9 alone or with aluminum, zinc, or magnesium by measuring C14 oxalate transport in C2 cells.

[4] = test system: human distal colon organoid; assay: oxalate transport by human distal colon organoid; format: cell-based
Procedure: as §1, §2

With `O=S(=O)(O)c1cc(N=C=S)ccc1C=Cc1ccc(N=C=S)cc1S(=O)(=O)O` [DIDS, reference compound] the “inhibition of oxalate transport” value (human ileum organoid) was ~80% and the “inhibition of 14C-oxalate influx” value ([1]; 100 μM DIDS, sigmoid colonic Org) was ~70%.

For `O=S(=O)(NCCNC/C=C/c1ccc(Br)cc1)c1cccc2cnccc12` [Peptide H89, H89, reference compound], the “effect of pretreatment on CM-induced oxalate transport” value ([2]; PKA inhibitor pretreatment, Ref. 4) is given as “completely blocked”.

In the case of `[Al]` [aluminum], the “effect of trace element added to P8 or P9 on oxalate transport, in words” value [3] is reported as “did not result in increased oxalate transport”.

With `[Cl-].[Cl-].[Zn+2]` [zinc chloride] the “effect of trace element added to P8 or P9 on oxalate transport, in words” value [3] was “not”.

For “AKAQY(Peg)L(Peg)ILYAK(Peg)Q(Peg)VAPDQEKALILYRMAATQ(Peg) (AKAQY[PEG6′]L[PEG6′]ILYAK[PEG6′]Q[PEG6′]VAPDQEKALILYRMAATQ[PEG6′]) [Peptide P9-Peg]”, the “stimulation of oxalate transport (14C-oxalate influx) by C2 cells, in words” value (“stimulation … by C2 cells, in words” below) ([3]; Caco2-BBE cells, listed as P9 with all glycines replaced with PEG6) was “similarly stimulated; also recorded: significantly stimulate”.

For “AKAQYGLGILYAKGQ(d-alanine)VAPDQEKALILYRMAATQG (AKAQYGLGILYAKGQ[dA]VAPDQEKALILYRMAATQG) [Peptide P9-Daa]”, the “stimulation … by C2 cells, in words” value ([3]; Caco2-BBE cells, listed as P9 with G16 replaced with D-alanine) was “similarly stimulated; also recorded: significantly stimulate”, the “stimulation of oxalate transport by sigmoid colon organoid, in words” value [1] was “significantly stimulate” and the “stimulation of oxalate transport by distal colon organoid, in words” value [4] was “significantly stimulate”.

In the case of “AKAQYGLGILYAKGQGVAPDQEKALILYRMAATQG-Am (AKAQYGLGILYAKGQGVAPDQEKALILYRMAATQG-NH2) [Peptide P9-Am]”, the “stimulation … by C2 cells, in words” value ([3]; Caco2-BBE cells, listed as P9 with C-terminal amidation) is reported as “significantly stimulate”, the “stimulation of oxalate transport by sigmoid colon organoid, in words” value [1] is reported as “significantly stimulate” and the “stimulation of oxalate transport by distal colon organoid, in words” value [4] is reported as “significantly stimulate”.

With “ARAQFNLGKTFYIGAGINKNTDKAVYWFIKAANQG [Peptide P5]” the “stimulation … by C2 cells, in words” value ([3]; Caco2-BBE cells) was “no effects”.

With “Ac-AKAQYGLGILYAKGQGVAPDQEKALILYRMAATQG [Peptide P9-Ac]” the “stimulation … by C2 cells, in words” value ([3]; Caco2-BBE cells, listed as P9 with N-terminal acetylation) was “significantly stimulate”, the “stimulation of oxalate transport by sigmoid colon organoid, in words” value [1] was “significantly stimulate” and the “stimulation of oxalate transport by distal colon organoid, in words” value [4] was “significantly stimulate”.

In the case of “Ac-DAQYMLGAMSVEGIGLPKDSQVALTWLSKAAAQGD [Peptide P8-Ac]”, the “stimulation … by C2 cells, in words” value ([3]; Caco2-BBE cells, listed as P8 with N-terminal acetylation) is reported as “significantly stimulate”.

In the case of “DAQYMLA(Peg)MSVE(Peg)I(Peg)LPKDSQVALTWLSKAAAQ(Peg)D (DAQYMLA[PEG6′]MSVE[PEG6′]I[PEG6′]LPKDSQVALTWLSKAAAQ[PEG6′]D) [Peptide P8-Peg]”, the “stimulation … by C2 cells, in words” value ([3]; Caco2-BBE cells, listed as P8 with all glycines replaced with PEG6) is reported as “similarly stimulated; also recorded: significantly stimulate”.

In the case of “DAQYMLGAMSVEGI(d-alanine)LPKDSQVALTWLSKAAAQGD (DAQYMLGAMSVEGI[dA]LPKDSQVALTWLSKAAAQGD) [Peptide P8-Daa]”, the “stimulation … by C2 cells, in words” value ([3]; Caco2-BBE cells, listed as P8 with G15 replaced with D-alanine) is reported as “similarly stimulated; also recorded: significantly stimulate”.

In the case of “DAQYMLGAMSVEGIGLPKDSQVALTWLSKAAAQGD-Am (DAQYMLGAMSVEGIGLPKDSQVALTWLSKAAAQGD-NH2) [Peptide P8-Am]”, the “stimulation … by C2 cells, in words” value ([3]; Caco2-BBE cells, listed as P8 with C-terminal amidation) is reported as “significantly stimulate”.

With “ESQNNLGALYNDGNGVDRDYQEAVFWYRKSALQGD [Peptide P6]” the “stimulation … by C2 cells, in words” value ([3]; Caco2-BBE cells) was “no effects”.

In the case of “QSQYNLGIAYEEGWGAEKNPENAVFWYRKAAEQGH [Peptide P4]”, the “stimulation of oxalate transport (14C-oxalate influx) by C2 cells” value ([3]; Caco2-BBE cells) is reported as 1.5 fold.

B1: 318: Sel1 protein 318 (52 kDa) of Oxalobacter formigenes (protein)
chain: MKRRVLYGVLFAVLAGCSAGALASVSGLSDGLAQLERRQFESAYATLMPEAEKGNPRAALEVGKLLLTGRGVAKDEAAAVKWLLVAADSGNRDAQYMLGAMSVEGIGLPKDSQVALTWLSKAAAQGDARAKTALGILMQSAGPGSQHTEQAARWFERAAASGEPEAQRRWALMLASGRGVAKNEGEALKWFKKAAVAGDVEAQRNLGIMLSTGKGVTGGKPDFAEAARWYGLAAKKGDAKAQYGLGILYAKGQGVAPDQEKALILYRMAATQGLATAEYAVGLAYAYGRGTAQNDVKAADWFEAAAQQGVVRAQYNLALMLEAGRGRPVDTVAASKWFLMAAEKGLREAQYNMGYHYAEGKGVPRDQGKAVFWYEKAAAAGDVKAQYNLGMLYLNGVNGKADDEKAAFFYRMAAGAGYGPAMYRLAVLYEEGRGVKQSYQLAGEWYERADLAAKVKIDEAMKKNPHPFVQRTLQVPDDLNQSSDKLAGH
For B1, the “stimulation of oxalate transport by cells (Sel1 proteins), in words” value [2] is listed as “significantly stimulating; also recorded: most potent stimulators”.

B2: 301: Sel1 protein 301 (54 kDa) of Oxalobacter formigenes (protein)
chain: MSSVIADSQQPAVSEENANKIILDEEKAVIQCNERYKTENDEKGDEETVSWCRKAAKSGNAEAQYLFGMLVYDGRGVQQDNCVAMLWWMKAAEQNHAKALVMLGNLHRKGQCIAENYPKAIAYWKRAAVQNNVWAYHNLGTAYYDGIGVDKNPHEAVRWWKKAAELGFPESQNNLGALYNDGNGVDRDYQEAVFWYRKSALQGDELGQYNLGVAYYYGRGIKKDFSEAVSWYKKSAEQDYAQAQHNLGVTYYEGEGIKKDYAKAVYWWKKAAEQGIPQSQYNLGIAYEEGWGAEKNPENAVFWYRKAAEQGHADAQNRLGIAYRYGTGVRKNPALSVKWLEKAAKQGLARAQFNLGKTFYIGAGINKNTDKAVYWFIKAANQGFTEAQAYIGMIYFKGKYVAKNEKKGFYWLKKAAEKDSAKAQAFLGALYIAGNEVKPNIKEGVALTKKAALQGNYEAQTLLGFCYENGLEVKKDLIAAYALYLSASPHFDFAEKARLDLERKLSEQEIAKAISVNTAKLFE
For B2, the “stimulation of oxalate transport by cells (Sel1 proteins), in words” value [2] is given as “significantly stimulating; also recorded: most potent stimulators”.
